# Key:
# FTSJ1 = target: T1, FTSJ1 (Homo sapiens, UniProt Q9UET6); assay: Screening test: FLAG-FTSJ1 transmethylation of total RNA, SAM to SAH conversion measured with MTase-Glo luminescence; format: biochemical; details: 10 ng/reaction FLAG-FTSJ1, 1,000 ng/reaction total RNA, different concentrations; FIG. 3B
# T1 construct: made in house; host or cells: HEK293 cells stably expressing FLAG-tagged FTSJ1
# T1 sequence (Q9UET6 1-329): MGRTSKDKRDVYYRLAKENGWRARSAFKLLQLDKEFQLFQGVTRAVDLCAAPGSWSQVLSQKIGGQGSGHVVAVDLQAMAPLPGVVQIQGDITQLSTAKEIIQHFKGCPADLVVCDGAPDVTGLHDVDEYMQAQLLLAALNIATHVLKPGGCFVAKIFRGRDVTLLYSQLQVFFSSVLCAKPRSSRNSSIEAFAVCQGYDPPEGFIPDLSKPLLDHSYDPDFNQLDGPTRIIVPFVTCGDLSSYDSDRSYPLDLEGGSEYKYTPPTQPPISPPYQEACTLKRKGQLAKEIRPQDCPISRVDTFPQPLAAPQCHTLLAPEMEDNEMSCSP
# Procedure: HEK293 human embryonic kidney cells that constantly express FLAG-tagged FTSJ1 were produced, and from its cell lysate, FLAG-FTSJ1 was separated by adsorption using an anti-FLAG M2 antibody affinity gel (Sigma-Aldrich Co. LLC, catalog number: A2220-10ML), and eluted with FLAG peptide (Sigma-Aldrich Co. LLC, catalog number: F3290-25MG). After measuring the protein concentration in the eluate, serial dilutions were performed within the range of 0 to 20 ng/reaction to obtain enzyme dilutions of 12 different concentrations. Further, the total RNA was extracted from HEK293-FTSJ1-KO cells, in which FTSJ1 was knocked out, using TRIzol Reagent (Thermo Fisher Scientific Inc., catalog number: 15596018). […] The conversion reaction from SAM (s-adenosyl methionine) to SAH (s-adenosyl homocysteine), which occurred when FLAG-FTSJ1 in each dilution methylated 1,000 ng/reaction of the total RNA, was measured as a luciferase luminescence value using MTase-Glo Reagent in the assay kit. Taking the luminescence value at the time when FLAG-FTSJ1 was 0 ng as a background value, a graph was drawn using the numerical values obtained by subtracting the background value from the luminescence value at each dilution step. […]
# [1] = test system: 39 types of human cancer cell lines (JFCR39); assay: Cell line panel (JFCR39) cell proliferation, sulforhodamine B, GI50; format: cell-based
# Procedure: In order to extract genes that prescribe the sensitivity and resistance with respect to the FTSJ1 inhibitors, PVZF2001 was used to proceed with the analysis with a cell line panel (JFCR39). […] The GI50 value is defined, based on the number of cells before drug exposure, as a concentration at which the increase is inhibited by 50% by drug treatment, with the increase in a sample cultured for 48 hours without drug treatment (negative control) taken as 100%. In order to extract the target gene clusters, a COMPARE analysis was first performed using gene expression and the Log GI50 values in all of the cell lines. The gene clusters of SEQ ID NOs: 14 to 28 were then identified as FTSJ1 inhibitor resistance-related genetic markers, while the gene clusters of SEQ ID NOs: 34 to 47 were identified as FTSJ1 inhibitor sensitive-related genetic markers. […] The gene clusters of SEQ ID NOs: 29 to 33 were then identified as FTSJ1 inhibitor resistance-related genetic markers, while the gene clusters of SEQ ID NOs: 48 to 56 were identified as FTSJ1 inhibitor sensitive-related genetic markers. Using these genetic markers, a database of gene expression information (TCGA) obtained from patient samples was analyzed. […] That is, the results reveal that the FTSJ1 gene expression level itself also represents sensitivity and resistance with respect to the FTSJ1 inhibitors (SEQ ID NO: 57).
# MGG4 = assay: Sphere-forming ability (anchorage-independent cell proliferation), MGG4; format: cell-based, human; details: MGG4 (high FTSJ1 expression), 1 week, 0-5000 nM; FIG. 4B
# Procedure: (§1) To verify whether the expression analysis of these gene clusters contributes to predicting the anti-cancer effect by the FTSJ1 inhibitors, the FTSJ1 gene was actually used as an example to analyze the anti-cancer effect of the FTSJ1 inhibitor PVZF2001 on human malignant brain tumor cell lines. Human malignant brain tumor cell lines MGG4, MGG8, MGG18, MGG23 were treated with stem cell medium (Neurobasal, B-27, N-2, 20 ng/mL EGF, 20 ng/mL bFGF) containing different concentrations (0 nm, 200 nM, 500 nM, 1000 NM, 2000 NM, 5000 nM) of PVZF2001 for 1 week, and anchorage-independent cell proliferation was evaluated based on sphere-forming ability.
# MGG8 = assay: Sphere-forming ability (anchorage-independent cell proliferation), MGG8; format: cell-based, human; details: MGG8 (high FTSJ1 expression), 1 week, 0-5000 nM; FIG. 4B
# Procedure: as §1
# MGG18 = assay: Sphere-forming ability (anchorage-independent cell proliferation), MGG18; format: cell-based, human; details: MGG18 (high FTSJ1 expression), 1 week, 0-5000 nM; FIG. 4B
# Procedure: as §1
structure (smiles),measurement,setting,value
CC(C)c1cc(C(C)C)c(S(=O)(=O)CC2CC(C)(C)CC(C)(C)C2)c(C(C)C)c1 [PVZF2001],inhibitory effect of transmethylation by FTSJ1 (luminescence value),FTSJ1,a decrease in the luminescence value was observed in a concentration-dependent manner
same,"sensitivity / resistance of cell line (Log GI50, FIG. 4A)","[1]; DMS114, 48 hours",high sensitivity
same,"sensitivity / resistance of cell line (Log GI50, FIG. 4A)","[1]; NCI-H23, 48 hours",high resistance
same,"sensitivity / resistance of cell line (Log GI50, FIG. 4A)","[1]; NCI-H522, 48 hours",high sensitivity
same,"sensitivity / resistance of cell line (Log GI50, FIG. 4A)","[1]; SF-539, 48 hours",high sensitivity
same,"sensitivity / resistance of cell line (Log GI50, FIG. 4A)","[1]; SNB-75, 48 hours",high sensitivity
same,"sensitivity / resistance of cell line (Log GI50, FIG. 4A)","[1]; SNB-78, 48 hours",high resistance
same,"sensitivity / resistance of cell line (Log GI50, FIG. 4A)","[1]; U251, 48 hours",high sensitivity
same,anchorage-independent cell proliferation (sphere-forming ability),MGG4,showed proliferation inhibition at low concentrations
same,anchorage-independent cell proliferation (sphere-forming ability),MGG8,showed proliferation inhibition at low concentrations
same,anchorage-independent cell proliferation (sphere-forming ability),MGG18,showed proliferation inhibition at low concentrations

# Reference: patent US20230210834A1, “RNA METHYLTRANSFERASE INHIBITOR, SCREENING METHOD THEREFOR, ANTI-CANCER AGENT EFFICACY ASSESSMENT MARKER, AND KIT FOR EFFECTIVELY PREDICTING FTSJ1 INHIBITOR” (National University Corporation Okayama University, priority 2019, published 2023)
